Experimental data reported in article PMC13252604, “First Generation Proteolysis Targeting Chimeras (PROTACs) for the Treatment of Progeria” (Advanced Science, 2026).

Assays:
[1] = molecular target: T1, progerin (Mus musculus, UniProt P48678, DEL608-657); experiment: Progerin degradation, immunoblot in Lmna^G609G/G609G fibroblasts; assay type: cell-based; conditions: Lmna^G609G/G609G fibroblasts, 5 µM, 8 h, vs vehicle
T1 construct: endogenous in cells; host or cells: immortalized (SV40-LT) fibroblasts from Lmna G609G/G609G mice
T1 sequence (P48678 with tags, fused parts or gaps DEL608-657 limits assumed): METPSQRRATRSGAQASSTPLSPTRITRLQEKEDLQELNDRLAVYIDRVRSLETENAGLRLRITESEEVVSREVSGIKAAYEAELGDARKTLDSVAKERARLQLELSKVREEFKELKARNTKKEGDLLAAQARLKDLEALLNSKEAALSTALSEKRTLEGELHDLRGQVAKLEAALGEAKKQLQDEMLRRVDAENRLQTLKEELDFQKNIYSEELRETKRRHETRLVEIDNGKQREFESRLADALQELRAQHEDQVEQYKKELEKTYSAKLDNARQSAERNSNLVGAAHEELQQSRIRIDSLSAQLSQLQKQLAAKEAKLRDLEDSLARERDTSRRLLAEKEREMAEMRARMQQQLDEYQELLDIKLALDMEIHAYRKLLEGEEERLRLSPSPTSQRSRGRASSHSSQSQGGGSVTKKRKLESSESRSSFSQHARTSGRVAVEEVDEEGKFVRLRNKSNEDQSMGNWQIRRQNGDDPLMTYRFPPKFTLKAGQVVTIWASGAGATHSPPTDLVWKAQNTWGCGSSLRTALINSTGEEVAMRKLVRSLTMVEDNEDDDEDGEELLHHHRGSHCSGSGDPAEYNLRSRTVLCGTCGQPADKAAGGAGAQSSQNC
Procedure: The ability of compounds 2‐6 to degrade progerin was evaluated in Lmna^G609G/G609G fibroblasts, derived from the progeria mouse model that most closely replicates the human disease phenotype. Lamin A/C antibody was used for immunodetection due to its prevalent use in this context, enabling simultaneous visualization of both lamins and progerin [15].
FIGURE 2 (A) Representative cropped immunoblots and quantification of progerin from Lmna^G609G/G609G fibroblasts. Cells were incubated with vehicle or indicated compound at 5 µM for 8 h. MW, molecular weight (in kDa) markers. (B, C) Concentration and time‐dependency of the reduction of progerin levels induced by compounds 2 and 9. Graphs show quantification of progerin in Lmna^G609G/G609G fibroblasts (immunoblots are shown in Supporting Figure S1). Cells were incubated with vehicle or the indicated compound concentration for 8 h. For time‐course experiments, cells were incubated with vehicle or indicated compound at 5 µM. Bar graphs show mean±sem of 3 independent experiments performed in duplicate. Data were analysed using one‐way ANOVA followed by Dunnett's post–hoc test comparing all groups to the vehicle; ^*, p < 0.05. […]
4. Cell lines and culture.
Progeroid mouse fibroblasts, kindly donated by Prof. Carlos López Otín (Oviedo University, Spain), were isolated from LmnaG609G/G609G mice[19] and wild-type (WT) littermates and immortalized by retroviral transduction with SV40 large T antigen (SV40-LT). Since LmnaG609G/G609G mouse represents the most suitable and widely accepted model of HGPS, as it most faithfully recapitulates the molecular and phenotypic features of the human disease, its use in this study is fully justified. Moreover, although this cell […]
cells have been extensively validated by additional independent studies.[15, 65, 66] […]
experiments, nor does it affect the conclusions presented in our study.
Mouse fibroblasts were grown in Dulbecco’s modified eagle medium (DMEM, Gibco) supplemented with 10% heat inactivated fetal bovine serum (FBS, Gibco), 50 U/mL penicillin, and 50 μg/mL streptomycin (Invitrogen). Human progeroid HGADFN167 LmnaG608G/G608G (G608G) or or healthy HGADFN168 Lmna+/+ (WT) fibroblasts, were obtained from The Progeria Research Foundation (RRIDs CVCL_1Y92 and CVCL_1Y93, respectively) and cultured in DMEM with 20% heat inactivated FBS, 50 U/mL penicillin and 50 μg/mL streptomycin. All cells were incubated in a humidified atmosphere at 37 °C in the presence of 5% CO2 and were confirmed to be free of mycoplasma contamination. […]
Measurements were performed in triplicate, and each experiment was repeated at least three times. The viability values were calculated from the percentage of viable cells with respect to 100% viability of the vehicle-treated cells.
6. Immunoblot and immunocytofluorescence analysis.
Mouse or human progeroid cells were seeded at density of […] or 5 x 10^4 cells respectively on 12-well plates and incubated for 24 h in DMEM medium. For proteosome-dependency assays, cells were pre-treated either with the proteasome inhibitor (S)-MG132 (20 µM) or with the NEDD8-activating enzyme inhibitor MLN4924 (5 µM) for 2 h prior to […]
compound exposure. Then, cells were incubated with compound of interest or DMSO for the appropriate time and lysed with cold laemmli buffer (50 mM Tris-HCl pH 7.4, 150 mM NaCl, 1% Igepal) with a mixture of protease and phosphatase inhibitors (1 mM PMSF, 10 mM NaF, 0.3 mg/mL CalyculinA, 1 mM sodium orthovanadate, 10 mM β-glycerol-phosphate; all from Sigma-Aldrich and complete protease inhibitor cocktail, from Roche). Proteins were denatured at 95 ᵒC for 5 min and the lysates were immediately used or stored at -20 ᵒC until use. Samples were analysed by electrophoresis in polyacrylamide gels (All Kd SDS-PAGE, BioRad) and the proteins transferred to nitrocellulose membranes (GE Healthcare, Amersham). After 1 h of incubation in blocking buffer [20 mM Tris pH 7.6, 150 mM NaCl and 0.1% Tween-20 (TBS-T) with […]

[2] = system: Hutchinson‐Gilford Progeria Syndrome; conditions: progeria patients; cited from earlier work

| SMILES | progerin levels (immunoblot quantification) [1] | effect on key phenotypic hallmarks of progeria [2] | extension of average life expectancy [2] |
| --- | --- | --- | --- |
| CC1(C)Oc2cc3oc(=O)ccc3cc2C[C@@H]1OC(=O)CCCCCOc1ccc(C2CCC(=O)NC2=O)cc1 (some centres unmarked) [compound 10] | neither the glutarimide derivative 10 nor the VHL‐ligand‐containing compound 11 led to a significant reduction in progerin levels |  |  |
| Cc1ncsc1-c1ccc(CNC(=O)[C@@H]2C[C@@H](O)CN2C(=O)[C@@H](NC(=O)CCCCC(=O)O[C@H]2Cc3cc4ccc(=O)oc4cc3OC2(C)C)C(C)(C)C)cc1 [compound 11] | neither the glutarimide derivative 10 nor the VHL‐ligand‐containing compound 11 led to a significant reduction in progerin levels |  |  |
| CN1C(=O)CCC(N2C(=O)c3cccc(NCCCCCC(=O)O[C@H]4Cc5cc6ccc(=O)oc6cc5OC4(C)C)c3C2=O)C1=O (some centres unmarked) [compound 13] | ineffective in lowering progerin levels |  |  |
| NC(=O)N1CCC(CC(=O)N2CCC([C@H]3c4ncc(Br)cc4CCc4cc(Cl)cc(Br)c43)CC2)CC1 [lonafarnib] |  | does not improve some of the key phenotypic hallmarks of progeria | up to 33% |
